Key:
[1] = test system: Tau 4R2N (amino acids 335-353) peptide substrate; experiment: Peptide digest HPLC assay of tau protease activity; assay type: biochemical, human; settings: with 11 μg tau trimer protease, 20 hr at 37° C.
From the text: N-terminal sequencing of fragments using mass spectrometry identified autoproteolytic cut sites. In particular, cutting at the Lys340-Ser341 (340KS341) cut site occurred readily. Therefore, a 19-amino acid peptide corresponding to amino acids 335G to 353L of tau protein was synthesized that contained the KS cut site (340KS341). The reaction was monitored by reverse-phase high-pressure liquid chromatography (HPLC). […] An asterisk marks a non-specific contaminant that was used as a marker. […] 10 μg of tau peptide 335-353 ([…]) (SEQ ID NO:19) was custom synthesized by Genscript (Piscataway, N.J., USA) and 1 mg was dissolved in 1 mL of buffer (25 mM Tris-HCl pH 7.4). […] 32Karat™ LC-CE System, Beckman Coulter, Inc., (Indianapolis, Ind.)] using a linear gradient of acetonitrile in 0.1% TFA 0-60% acetonitrile on an analytical C18 column (12.5 cm×2.1 mm, 5 μm, (Supelco, Bellefonte, Pa., USA). 30 μg of peptide was incubated without tau protease as a negative control and analyzed with the same method;
Cleavage of the peptide substrate for tau protease, Tau 4R2N (amino acids 335-353) […] (SEQ ID NO.19), was used to monitor activity using reverse-phase HPLC. […] The large peak in the lower trace indicated intact peptide was greatly diminished in the upper trace and replaced with two smaller peaks F1 and F2 that represent fragments generated by TP-210. […]

[2] = test system: tubulin; experiment: Cleavage of tubulin by tau 4R2N trimer (SDS-PAGE); assay type: biochemical; settings: 19.25 hrs at 37° C.
Description: In a result not shown, tau 4R2N trimer cut tubulin. In that study, Lane 1—tubulin, no incubation; Lane 2—tubulin incubated without tau; Lane 3—tubulin with tau 4R/2N trimer, no incubation; Lane 4—tubulin incubated with tau 4R2N trimer. […] Incubation of tubulin with tau4R2N trimer led to the formation of tubulin fragments and degradation of tubulin dimer.
Lyophilized tubulin (Cat# TL238, Cytoskeleton Inc.) was suspended in 200 μL buffer for 6 mg/mL solution. Samples were incubated for 19.25 hrs at 37° C. 10 μL 2× Laemmli sample buffer (BME) was added to each sample. Samples heated at 95° C. for 5 min in a thermal cycler with heated lid 5 min prior to loading.

[3] = test system: Human α-endorphin peptide; experiment: Cleavage of α-endorphin peptide (HPLC); assay type: biochemical; settings: 20 hrs at 37° C.
Description: Human α-endorphin peptide [[…](SEQ ID NO:13) (Abbiotech, LLC, San Diego, Calif., USA)] was incubated at 37° C. for 20 hrs with or without […] tau 4R2N trimer protease, and analyzed by reverse phase HPLC (SystemGold® 32Karat™ LC-CE System, Beckman Coulter, Inc., Indianapolis, Ind., USA) using a linear gradient of acetonitrile in 0.1% TFA, 0-60% acetonitrile on an analytical C18 column (12.5 cm×2.1 mm, 5 μm (Supelco). The peptide was hypothesized to be cut by tau protease because it contains Lys-Ser in its sequence which is found at autocatalytic cleavage sites in tau. Two fragment peaks were produced as predicted by tau 4R2N trimer protease. […] The asterisk indicates an artifactual peak unrelated to the peptide;
12 μg of α-endorphin peptide (Anaspec, Fremont, Calif.) was incubated with 1.2 μg of tau 4R/2N trimer in reaction buffer (25 mM Tris-HCl pH 7.4) for 20 hrs at 37° C. Reverse phase HPLC was used to monitor the cleavage of the peptide. […] The asterisk indicates an artifact peak that is derived from the incubation tube.

[4] = test system: Human APP 667-676 peptide; experiment: Cleavage of APP 667-676 peptide (HPLC); assay type: biochemical; settings: 20 hr at 37° C.
Description: Human APP 667-676 peptide [[…](SEQ ID NO:14) (Anaspec, Fremont, Calif., USA)] was incubated 20 hr at 37° C. with or without […] tau 4R2N trimer protease and analyzed by reverse phase HPLC (SystemGold® 32Karat™ LC-CE System, Beckman Coulter, Inc.) using a linear gradient of 0 to 60% acetonitrile in 0.1% TFA on an analytical C18 column (12.5 cm×2.1 mm, […], Supelco). […] The asterisk indicates an artifactual peak unrelated to the peptide. Tau 4R2N trimer protease cut APP at the penultimate amino acid adjacent to the β-secretase (BACE) cut site thereby generating Aβ(1-42). Tau protease activity has been observed extracellularly in the CSF. Generation of Aβ(1-42) can stimulate inflammation within a neuron leading to BACE up-regulation. Furthermore Aβ(1-42) has been observed in plaques and can be converted to Aβ(1-42) by BACE cleavage of the N-terminal methionine. The implications are that tau protease may be the initial activation step for the amyloid cascade;

Substance: tau 4R2N trimer: purified disulfide-mediated trimer species of recombinant human tau 4R2N
- completeness of the peptide cleavage reaction [1]: more than 90%
- cutting of tubulin [2]: cut tubulin
- cutting of α-endorphin peptide [3]: cuts α-endorphin peptide
- cutting of APP 667-676 peptide [4]: cuts APP 667-676 peptide

From patent US10597649B2, “Tau protease compositions and methods of use” (Oligomerix, Inc., priority 2011, dated 2020)
